According to US20180312493A1, “Antibiotic Compounds, Pharmaceutical Formulations Thereof And Methods And Uses Therefor” (Simon Fraser University, priority 2015, published 2018):
≈ marks a conversion by molar mass, not a printed value.

Key:
[1] = tested on: S. aureus (ATCC29213); assay: In vitro susceptibility, broth microdilution (MIC); assay type: cell-based; details: Staphylococcus aureus; S. aureus ATCC29213; 18-24 h, 37 C; read-out: Antimicrobial activity (MIC) S. aureus ATCC29213
How it was run: (§1)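 CLSI 2-fold serial broth microdilution; K. pneumoniae C238 grown in L-broth, S. aureus ATCC 29213 in Mueller Hinton broth, plates incubated 18–24 h at 37 °C. MIC taken as lowest concentration giving complete growth inhibition by OD600 versus compound-free wells, background-subtracted.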

[2] = tested on: A. baumannii (ATCC 17978); assay: In vitro susceptibility, broth microdilution (MIC); assay type: cell-based; details: Acinetobacter baumannii, ATCC17978; A. baumannii ATCC 17978 (values marked *); read-out: Antimicrobial activity (MIC) A. baumannii
Text: (§2) Epidemic methicillin resistant S. aureus (MRSA) strain sequenced at the Sanger Centre (MRSA252, NRS71) was obtained from NARSA (Network on Antimicrobial Resistance in S. aureus). Methicillin sensitive S. aureus (ATCC 29213 and 25923), methicillin resistant S. aureus (ATCC BAA-1762), and Salmonella typhimurium (ATCC BAA-185) were obtained from ATCC, The Global Bioresource Center. Acinetobacter baumannii (ATCC 19606 and ATCC 17978), Klebsiella pneumonia (C238), vancomycin resistant Enterococci #2 (2010A) (VRE#2), MRSA (USA400, MW2) and Pseudomonas aeruginosa (PA0-1) were obtained from the laboratory of Dr B. B. Finlay at the University of British Columbia (Vancouver, Canada).
(§3) The antimicrobial activities of PK inhibitor candidates were determined using the 96-well microtiter standard 2-fold serial broth microdilution method as described by CLSI (formerly NCCLS) with the various gram-positive and gram-negative bacteria species mentioned above. Bacteria from a single colony were grown, overnight in either BHI Broth (VRE), mueller hinton broth (S. aureus 29213; MRSA USA400, A. baumannii 19606, MRSA BAA-1762) or L-broth (P. aeruginosa, S. typhimurium, K. pneumonia and A. baumannii 17978). Each compound was prepared in DMSO with 2-fold serial dilutions to give a final concentration of, 0.031 to 64 μg/ml. 10 μl of the compound solution was then added, in duplicate, to either, 190 μl of cation adjusted mueller hinton broth (CAMHB) or 190 μl CAMHB containing ˜2.5×10^5 CFU/ml of bacteria (final compound concentration 0.031 to 64 μg/ml). Culture plates were incubated for 18-24 h at 37° C., and optical density at 600 nm (OD600) was measured using a Benchmark Plus™ microplate spectrophotometer (Bio-Rad™). The absorbance control values for the series containing CAMHB and inhibitor were subtracted as background from the corresponding infected wells. Minimal inhibitory concentration (MIC) was defined as the lowest concentration of test compound leading to complete inhibition of cell growth in relation to compound-free control wells as determined by optical density. Vancomycin, methicillin and ciprofloxicin were used as reference compounds. All assays were run in triplicate or duplicate. Experiments were replicated at least twice to verify reproducibility using the above conditions.

[3] = target: T1, MRSA Pyk (Staphylococcus aureus, UniProt Q6GG09); assay: MRSA pyruvate kinase (PK) activity, continuous LDH-coupled assay; assay type: biochemical, methicillin resistant S. aureus (MRSA252)
T1 construct: made in house; host or cells: E. coli BL-21 (DE3)
How it was run: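 Activity monitored continuously as absorbance change at 340 nm from NADH oxidation via coupled lactate dehydrogenase, reactions started with 15 nM recombinant His-tagged PK (MRSA or human isoform) and run at 30° C for up to 5 min. Ki derived by varying inhibitor (0-400 nM) and PEP (2-20 mM) at 2 mM ADP; IC50 by four-parameter fitting.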

[4] = tested on: K. pneumoniae (C238); assay: In vitro susceptibility, broth microdilution (MIC); assay type: cell-based; details: Klebsiella pneumoniae; K. pneumoniae (C238); read-out: Antimicrobial activity (MIC) K. pneumoniae
How it was run: as §1

[5] = tested on: VRE#2 (2010A); assay: In vitro susceptibility, broth microdilution (MIC); assay type: cell-based, vancomycin resistant Enterococci; details: VRE#2 (2010A); read-out: Antimicrobial activity (MIC) VRE#2
How it was run: (§4)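 MIC determined by CLSI 2-fold broth microdilution in cation-adjusted Mueller–Hinton broth at ~2.5×10^5 CFU/ml, final compound 0.031–64 μg/ml, 18–24 h at 37 °C. MIC is the lowest concentration giving complete growth inhibition by background-corrected OD600 versus compound-free wells; duplicate or triplicate wells, replicated at least twice.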

[6] = tested on: A. baumannii (ATCC 19606); assay: In vitro susceptibility, broth microdilution (MIC); assay type: cell-based; details: Acinetobacter baumannii, ATCC19606; A. baumannii ATCC 19606 (values without asterisk); read-out: Antimicrobial activity (MIC) A. baumannii
Text: as §2, §3

[7] = tested on: MRSA (ATCC BAA-1762); assay: In vitro susceptibility, broth microdilution (MIC); assay type: cell-based, methicillin resistant S. aureus; details: Staphylococcus aureus; MRSA ATCC BAA-1762; read-out: Antimicrobial activity (MIC) MRSA ATCC BAA1762
How it was run: as §4

| MIC [2] | Compound | MIC [1] | IC50 [3] | MIC [4] | MIC [5] | MIC [6] | MIC [7] |
| --- | --- | --- | --- | --- | --- | --- | --- |
| > 64 µg/mL | CCOC(CCCNC(=O)c1c(-c2cc3cc(Cl)ccc3[nH]2)[nH]c2cc(Br)ccc12)OCC [Compound 135, 6-Bromo-5′-chloro-N-(4,4-diethoxybutyl)-1H,1′H-[2,2′-biindole]-3-carboxamide] | > 64 µg/mL | – | – | – | – | – |
| > 64 µg/mL | O=C(Nc1ccc([N+](=O)[O-])cc1)Nc1nc2cc(Br)ccc2s1 [Compound 154, 1-(5-bromobenzo[d]thiazol-2-yl)-3-(4-nitrophenyl)urea] | > 64 µg/mL | – | – | – | – | – |
| > 64 µg/mL | Clc1cnc2nc(-c3cc4ccc(Br)cc4[nH]3)[nH]c2c1 [Compound 209, 2-(6-Bromo-1H-indol-2-yl)-6-chloro-1H-imidazo[4,5-b]pyridine] | > 64 µg/mL | – | – | – | – | – |
| > 64 µg/mL | COC(CNC(=O)c1c(-c2cc3cc(Cl)ccc3[nH]2)[nH]c2cc(Br)ccc12)OC [Compound 134, 6-Bromo-5′-chloro-N-(2,2-dimethoxyethyl)-1H,1′H-[2,2′-biindole]-3-carboxamide] | > 64 µg/mL | – | – | – | – | – |
| > 64 µg/mL | OCCn1c(-c2cc3ccc(Br)cc3[nH]2)nc2cc(Cl)c(Cl)cc21 [Compound 211, 2-(2-(6-Bromo-1H-indol-2-yl)-5,6-dichloro-1H-benzo[d]imidazol-1-yl)ethan-1-ol] | > 64 µg/mL | – | – | – | – | – |
| > 64 µg/mL | CC(C)(C)OC(=O)CCn1c(-c2cc3ccc(Br)cc3[nH]2)nc2cc(Cl)c(Cl)cc21 [Compound 214, tert-Butyl 3-(2-(6-bromo-1H-indol-2-yl)-5,6-dichloro-1H-benzo[d]imidazol-1-yl)propanoate] | > 64 µg/mL | – | – | – | – | – |
| – | CN(C)CCNC(=O)c1c(-c2cc3cc(Cl)ccc3[nH]2)[nH]c2cc(Br)ccc12 [Compound 73, 6-Bromo-5′-chloro-N-(2-(dimethylamino)ethyl)-1H,1′H-[2,2′-biindole]-3-carboxamide] | 8 µg/mL (≈ 17.4 µM) | < 100 nM | 8 µg/mL (≈ 17.4 µM) | 8 µg/mL (≈ 17.4 µM) | 64 µg/mL (≈ 139 µM) | – |
| – | CN1CCC(CCNC(=O)c2c(/C=C/c3ccc(Cl)cc3)[nH]c3cc(Br)ccc23)CC1 [Compound 40, (E)-6-Bromo-2-(4-chlorostyryl)-N-(2-(1-methylpiperidin-4-yl)ethyl)-1 H-indole-3-carboxamide] | 8 µg/mL (≈ 16 µM) | 100 to 1000 nM | 16 µg/mL (≈ 31.9 µM) | 8 µg/mL (≈ 16 µM) | > 64 µg/mL | – |
| – | N.O=C(O)CON=C(c1c(-c2cc3cc(Cl)ccc3[nH]2)[nH]c2cc(Br)ccc12)C(F)(F)F (racemic) [Compound 219, Ammonium 2-(((1-(6-bromo-5′-chloro-1H,1′H-[2,2′-biindol]-3-yl)-2,2,2-trifluoroethylidene)amino)oxy)acetate] | 8 µg/mL | < 100 nM | – | 4 µg/mL | > 64 µg/mL | 8 µg/mL |
| – | CN1CCCN(CCNC(=O)c2c(-c3cc4cc(Cl)ccc4[nH]3)[nH]c3cc(Br)ccc23)CC1 [Compound 119, 6-Bromo-5′-chloro-N-(2-(4-methyl-1,4-diazepan-1-yl)ethyl)-1H,1′H-[2,2′-biindole]-3-carboxamide] | 16 µg/mL (≈ 30.3 µM) | < 100 nM | – | 8 µg/mL (≈ 15.1 µM) | 64 µg/mL (≈ 121 µM) | 16 µg/mL (≈ 30.3 µM) |
| – | COCCN1CCCN(CCNC(=O)c2c(-c3cc4cc(Cl)ccc4[nH]3)[nH]c3cc(Br)ccc23)CC1 [Compound 130, 6-bromo-5′-chloro-N-(2-(4-(2-methoxyethyl)-1,4-diazepan-1-yl)ethyl)-1H,1′H-2,2′-biindole-3-carboxamide] | 16 µg/mL (≈ 27.9 µM) | < 100 nM | – | 16 µg/mL (≈ 27.9 µM) | > 64 µg/mL | 16 µg/mL (≈ 27.9 µM) |
| – | CNCCNC(=O)c1c(-c2cc3cc(Cl)ccc3[nH]2)[nH]c2cc(Br)ccc12 [Compound 136, 6-Bromo-5′-chloro-N-(2-(methylamino)ethyl)-1H,1′H-[2,2′-biindole]-3-carboxamide] | 8 µg/mL (≈ 17.9 µM) | < 100 nM | – | 8 µg/mL (≈ 17.9 µM) | 16 µg/mL (≈ 35.9 µM) | 8 µg/mL (≈ 17.9 µM) |
| > 64 µg/mL | O=C(Nc1nc2cc(Br)ccc2s1)Nc1ccc(Cl)cc1C(F)(F)F [Compound 157, 1-(5-bromobenzo[d]thiazol-2-yl)-3-(4-chloro-2-(trifluoromethyl)phenyl)urea] | – | – | – | – | – | – |
| – | CCNCCNC(=O)c1c(-c2cc3cc(Cl)ccc3[nH]2)[nH]c2cc(Br)ccc12 [Compound 137, 6-Bromo-5′-chloro-N-(2-(ethylamino)ethyl)-1H,1′H-[2,2′-biindole]-3-carboxamide] | 8 µg/mL (≈ 17.4 µM) | < 100 nM | – | 8 µg/mL (≈ 17.4 µM) | 32 µg/mL (≈ 69.6 µM) | 8 µg/mL (≈ 17.4 µM) |
| – | OCCOc1cc2[nH]c(-c3cc4ccc(Br)cc4[nH]3)cc2cc1Cl [Compound 196, 2-((6′-Bromo-5-chloro-1H,1′H-[2,2′-biindol]-6-yl)oxy)ethan-1-ol] | 16 µg/mL (≈ 39.4 µM) | < 100 nM | – | > 64 µg/mL | > 64 µg/mL | 8 µg/mL (≈ 19.7 µM) |
| – | COCCN1CCC(NCCNC(=O)c2c(-c3cc4cc(Cl)ccc4[nH]3)[nH]c3cc(Br)ccc23)CC1 [Compound 124, 6-Bromo-5′-chloro-N-(2-((1-(2-methoxyethyl)piperidin-4-yl)amino)ethyl)-1H,1′H-[2,2′-biindole]-3-carboxamide] | 8 µg/mL (≈ 14 µM) | < 100 nM | – | 8 µg/mL (≈ 14 µM) | 16 µg/mL (≈ 27.9 µM) | 8 µg/mL (≈ 14 µM) |
| – | C[n+]1ccc(CCNC(=O)c2c(-c3cc4cc(Cl)ccc4[nH]3)[nH]c3cc(Br)ccc23)cc1 [Compound 149, 4-(2-(6-bromo-5′-chloro-1H,1′H-[2,2′-biindole]-3-carboxamido)ethyl)-1-methylpyridin-1-ium] | 16 µg/mL | < 100 nM | – | 16 µg/mL | > 64 µg/mL | 16 µg/mL |
| – | COC(=O)C[N+](C)(C)CCON=C(c1c(-c2cc3cc(Cl)ccc3[nH]2)[nH]c2cc(Br)ccc12)C(F)(F)F (racemic) [Compound 222, N-(2-(((1-(6-Bromo-5′-chloro-1H,1′H-[2,2′-biindol]-3-yl)-2,2,2-trifluoroethylidene)amino)oxy)ethyl)-2-methoxy-N,N-dimethyl-2-oxoethan-1-aminium Bromide] | 2 µg/mL | < 100 nM | – | 4 µg/mL | 32 µg/mL | 2 µg/mL |
| – | CC(C)(C)NCCNC(=O)c1c(-c2cc3cc(Cl)ccc3[nH]2)[nH]c2cc(Br)ccc12 [Compound 138, 6-Bromo-N-(2-(tert-butylamino)ethyl)-5′-chloro-1H,1′H-[2,2′-biindole]-3-carboxamide] | 4 µg/mL (≈ 8.2 µM) | < 100 nM | – | 4 µg/mL (≈ 8.2 µM) | 64 µg/mL (≈ 131 µM) | 8 µg/mL (≈ 16.4 µM) |
| – | C[n+]1cccc(CNC(=O)c2c(-c3cc4cc(Cl)ccc4[nH]3)[nH]c3cc(Br)ccc23)c1 [Compound 148, 3-((6-bromo-5′-chloro-1H,1′H-[2,2′-biindole]-3-carboxamido)methyl)-1-methylpyridin-1-ium] | 8 µg/mL | < 100 nM | – | 16 µg/mL | > 64 µg/mL | 16 µg/mL |
